Key:
Assay in all cases: relative viability (nuclei count vs DMSO), 5 days (fraction); higher = more cells survive
[1] = compound: CC(C)(C)c1cc(NC(=O)Nc2ccc(-c3cn4c(n3)sc3cc(OCCN5CCOCC5)ccc34)cc2)no1 [Quizartinib] + CC(=O)c1c(C)c2cnc(Nc3ccc(N4CCNCC4)cn3)nc2n(C2CCCC2)c1=O [Palbociclib] (partner 0.5 µM)
Procedure, shortened: (§1)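 Lung cancer cell lines in 1536-well plates were dosed by pin tool the day after seeding, either with one drug alone or with a fixed anchor-drug dose plus five library-drug doses (not always all listed) in √10 steps. After 5 days, cells were fixed and their nuclei stained in one step (final 0.05% Triton X-100, 1% formaldehyde, 1 ug/ml Hoechst), then counted on 4× images. Relative viability is the nuclei count in treated wells divided by that in vehicle wells. Values are medians of duplicate plates.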

[2] = compound: CC(C)(C)c1cc(NC(=O)Nc2ccc(-c3cn4c(n3)sc3cc(OCCN5CCOCC5)ccc34)cc2)no1 [Quizartinib] + Nc1nc2[nH]cc(CCc3ccc(C(=O)N[C@@H](CCC(=O)O)C(=O)O)cc3)c2c(=O)[nH]1 [Pemetrexed] (partner 0.2 µM)
Procedure, shortened: as §1

[3] = compound: COCC[n+]1c2c(n(Cc3cnccn3)c1C)C(=O)c1ccccc1C2=O [YM155] + Cc1nc(NC(=O)N2CCC[C@H]2C(N)=O)sc1-c1ccnc(C(C)(C)C(F)(F)F)c1 [Alpelisib] (partner 2 µM)
Procedure, shortened: as §1

[4] = compound: COCC[n+]1c2c(n(Cc3cnccn3)c1C)C(=O)c1ccccc1C2=O [YM155] + Nc1ncn([C@H]2C[C@H](O)[C@@H](CO)O2)c(=O)n1 [Decitabine] (partner 2 µM)
Procedure, shortened: as §1

Row | Cell Line | relative viability ([1]; first compound 0.001 µM) | relative viability ([1]; first compound 0.003162 µM) | relative viability ([1]; first compound 0.01 µM) | relative viability ([1]; first compound 0.03162 µM) | relative viability ([1]; first compound 0.1 µM) | relative viability ([2]; first compound 0.001 µM) | relative viability ([2]; first compound 0.003162 µM) | relative viability ([2]; first compound 0.01 µM) | relative viability ([2]; first compound 0.03162 µM) | relative viability ([2]; first compound 0.1 µM) | relative viability ([3]; first compound 0.002 µM) | relative viability ([3]; first compound 0.006325 µM) | relative viability ([3]; first compound 0.02 µM) | relative viability ([3]; first compound 0.06325 µM) | relative viability ([4]; first compound 0.002 µM) | relative viability ([4]; first compound 0.006325 µM) | relative viability ([4]; first compound 0.02 µM) | relative viability ([4]; first compound 0.06325 µM)
1 | SK-MES-1 | 0.338 | 0.286 | 0.362 | 0.299 | 0.292 | 0.939 | 0.904 | 0.981 | 0.563 | 0.817 | 0.823 | 0.905 | 1.05 | 0.715 | 0.423 | 0.289 | 0.285 | 0.21
2 | SW 1573 | 0.367 | 0.367 | 0.493 |  | 0.434 | 0.872 | 0.75 | 0.826 |  | 0.848 | 0.73 | 0.657 | 0.875 | 0.723 | 0.369 | 0.461 | 0.243 | 0.136
3 | UMC-11 |  | 0.333 | 0.339 | 0.321 | 0.317 | 0.676 | 0.787 | 0.864 | 0.771 | 0.818 | 1.03 | 1.06 | 1 | 1.08 | 0.551 | 0.574 | 0.725 | 0.626

From the supplement of paper PMC10307832
